In patent US20120208781A1, “AMINOGLYCOSIDE DOSING REGIMENS” (Achaogen, Inc., priority 2009, published 2012):

Tests used:
[1] = Pharmacokinetics of Compound 1 after single bolus IV injection in mice; format: in vivo, CD-1 mice; details: 10 mg/kg single bolus IV; for C0: 10 mg/kg
Description: (§1) Male CD-1 mice, Sprague Dawley rats, and beagle dogs were administered Compound 1 intravenously. Compound 1 was preformulated as a sterile isotonic solution of 10 mg/mL in PBS. Specifically, male CD-1 mice were administered a single bolus IV injection of the Compound at 10 mg/kg, via a bolus IV injection into the tail vein. Two blood samples per mouse were collected by retro-orbital puncture into tubes containing the anticoagulant K2EDTA prior to dosing and at 0.033, 0.083, 0.25, 0.5, 1 and 24 hours. Rats were administered Compound 1 at 10 mg/kg via a bolus IV injection into the tail vein. Twelve blood samples per rat were collected via a jugular vein cannula into tubes containing the anticoagulant K2EDTA at various timepoints (i.e., 0.033, 0.083, 0.25, 0.5, 1, 2, 4, 6, 8, 10, 12, and 24 hours). Male beagle dogs were administered Compound 1 at 10 mg/kg through a temporary percutaneous catheter placed in a peripheral vein. Whole blood samples (0.5 mL) were collected from each dog prior to dosing and at 0.033, 0.083, 0.25, 0.5, 1, 2, 4, 6, 8, and 24 hours via direct venipuncture of a jugular or cephalic vein into tubes containing the anticoagulant K2EDTA. A sparse sampling method was employed to conserve animals and provide the best data possible from fewer mice. Samples were centrifuged, and plasma was collected and transferred into a new tube and frozen at −80° C. until they were analyzed.
(§2) Blood, urine, and kidney samples collected over 24 hours were analyzed for Compound 1 levels using LC-MS/MS. Method performance was acceptable in the concentration ranges necessary to determine plasma levels. Compound 1 plasma concentrations were determined by comparing Compound 1 concentration in the sample to a standard curve derived from LC-MS/MS measurements of the analyte. The standard curve fit was linear with a 1/x^2 weighting.
(§3) Bioanalytical data analyses were carried out using Analyst software (version 1.4.1, Applied Biosystems, Toronto, ON, Canada). […] PK parameters were determined by noncompartmental analysis using WinNonLin. Plasma protein binding was determined using equilibrium dialysis. In vitro stability was determined using commercially available plasma, microsomes and hepatocytes.

[2] = Pharmacokinetics of Compound 1 after single bolus IV injection in rats; format: in vivo, Sprague Dawley rats; details: for half-life / AUC(0-inf) / C0 / clearance / MRT inf / Vd: Sprague Dawley, rat, plasma, 10 mg/kg
Description: as §1, §2, §3

[3] = Plasma protein binding by equilibrium dialysis; format: in vitro ADME
Description: as §3

[4] = iv, 10 mg/kg single bolus IV, Mean ± SD
[5] = iv, 10 mg/kg single bolus IV, Rat 101
[6] = iv, 10 mg/kg single bolus IV, Rat 102
[7] = iv, 10 mg/kg single bolus IV, Rat 103

CN[C@@H]1[C@@H](O)[C@@H](O[C@@H]2[C@@H](O)[C@H](O[C@H]3OC(CNCCO)=CC[C@H]3N)[C@@H](N)C[C@H]2NC(=O)[C@@H](O)CCN)OC[C@]1(C)O [Compound 1, 6′-(2-Hydroxy-ethyl)-1-(4-amino-2(S)-hydroxy-butyryl)-sisomicin]
C0 [1]: 87600 ng/mL
AUC(0-inf) ([1]; male, CD-1, mouse, plasma): 18500 ng·h/mL
clearance ([1]; male, CD-1, mouse, plasma): 9.02 mL/min/kg
half-life ([1]; male, CD-1, mouse, plasma): 84 min
MRT inf ([1]; male, CD-1, mouse, plasma, read-out: MRT0-∞): 36 min
Vd ([1]; male, CD-1, mouse, plasma, read-out: Vss): 0.34 L
Vd ([1]; male, CD-1, mouse, plasma, read-out: volume of distribution at steady state (Vss)): 0.34 L/kg
C0 ([1]; male, CD-1, mouse, plasma, iv, read-out: C0): 88000 ng/mL
tissue distribution [2]: distributed to rat kidneys
half-life ([2]; intravenous, read-out: t½ (renal clearance) (converted)): ~60 min
AUC(0-inf) [2, 4]: 15700 ng·h/mL
C0 [2, 4]: 37500 ng/mL
clearance [2, 4]: 10.8 mL/min/kg
MRT inf ([2]; iv, 10 mg/kg single bolus IV, Mean ± SD, read-out: MRT0-∞): 42 min
Vd ([2]; iv, 10 mg/kg single bolus IV, Mean ± SD, read-out: Vss): 0.437 L/kg
half-life ([2]; iv, 10 mg/kg single bolus IV, Mean ± SD, read-out: t1/2 (converted)): 56.4 min
AUC(0-inf) [2, 5]: 13800 ng·h/mL
C0 [2, 5]: 41700 ng/mL
clearance [2, 5]: 12.1 mL/min/kg
MRT inf ([2]; iv, 10 mg/kg single bolus IV, Rat 101, read-out: MRT0-∞): 36 min
Vd ([2]; iv, 10 mg/kg single bolus IV, Rat 101, read-out: Vss): 0.403 L/kg
half-life ([2]; iv, 10 mg/kg single bolus IV, Rat 101, read-out: t1/2 (converted)): 57 min
AUC(0-inf) [2, 6]: 18500 ng·h/mL
C0 [2, 6]: 42200 ng/mL
clearance [2, 6]: 9.02 mL/min/kg
MRT inf ([2]; iv, 10 mg/kg single bolus IV, Rat 102, read-out: MRT0-∞): 48 min
Vd ([2]; iv, 10 mg/kg single bolus IV, Rat 102, read-out: Vss): 0.434 L/kg
half-life ([2]; iv, 10 mg/kg single bolus IV, Rat 102, read-out: t1/2 (converted)): 55.8 min
AUC(0-inf) [2, 7]: 14800 ng·h/mL
C0 [2, 7]: 28800 ng/mL
clearance [2, 7]: 11.3 mL/min/kg
MRT inf ([2]; iv, 10 mg/kg single bolus IV, Rat 103, read-out: MRT0-∞): 42 min
Vd ([2]; iv, 10 mg/kg single bolus IV, Rat 103, read-out: Vss): 0.473 L/kg
half-life ([2]; iv, 10 mg/kg single bolus IV, Rat 103, read-out: t1/2 (converted)): 55.8 min
Cmax and exposure (AUC) dose linearity ([2]; intravenous dosing): dose linear to 75 mg/kg
fraction unbound [3]: > 0.8
